Measurements published in US20220315572A1, “SUBSTITUTED CYANOPYRROLIDINES WITH ACTIVITY AS USP30 INHIBITORS” (MISSION THERAPEUTICS LIMITED, priority 2019, published 2022).

Experiments:
Cathepsin V = Cathepsin V (Homo sapiens, UniProt O60911); experiment: Cathepsin IC50, cathepsin V; type: biochemical
[1] = test system: HCT116 human colorectal carcinoma cells; experiment: In vitro cytotoxicity (Cell Tox), alamarBlue; type: cell-based; details: for EC50: Homo sapiens, HCT-116, 96-hour continual compound exposure, alamarBlue
Excerpt: There is also a need for compounds that have a favourable safety profile, which may be measured by a variety of standard in vitro and in vivo methods. A cell toxicity counter-screen may be used to assay the anti-proliferative/cytotoxic effect in a particular cell line (e.g. HCT116) by fluorometric detection of rezasurin (alamarBlue) to resofurin in response to mitochondrial activity.
In Vitro Cytotoxicity (Cell Tox): Measured in HCT116 human colorectal carcinoma cells using alamarBlue as the assay endpoint. Compound cytotoxicity was measured over a period of 96-hour continual compound exposure.

Cathepsin B = Cathepsin B (Homo sapiens, UniProt P07858); experiment: Cathepsin IC50, cathepsin B; type: biochemical
[2] = test system: USP2, USP10, USP16, USP21, USP22, USP25, USP28, USP35, USP46; experiment: DUB biochemical IC50 assays, nine DUBs; details: range over the nine DUBs; for IC50: Ref. Ex. C excl. USP22, Ref. Ex. D excl. USP2, 46
USP30 = biological target: T1, USP30 (Homo sapiens, UniProt Q70CQ3); experiment: USP30 biochemical IC50 assay (fluorescence polarisation); details: for IC50: USP30 biochemical IC50 assay, exemplary compounds, read-out: IC50; for fold more potent against USP30 than Reference Example A: v Reference Example A; for fold more potent against USP30 than Reference Example E: v Reference Example E; for fold more potent against USP30 than Reference Example F: v Reference Example F; for fold more potent against USP30 than Reference Example G: v Reference Example G
T1 construct: purchased Boston Biochem E582
T1 sequence (Q70CQ3 57-517 limits assumed): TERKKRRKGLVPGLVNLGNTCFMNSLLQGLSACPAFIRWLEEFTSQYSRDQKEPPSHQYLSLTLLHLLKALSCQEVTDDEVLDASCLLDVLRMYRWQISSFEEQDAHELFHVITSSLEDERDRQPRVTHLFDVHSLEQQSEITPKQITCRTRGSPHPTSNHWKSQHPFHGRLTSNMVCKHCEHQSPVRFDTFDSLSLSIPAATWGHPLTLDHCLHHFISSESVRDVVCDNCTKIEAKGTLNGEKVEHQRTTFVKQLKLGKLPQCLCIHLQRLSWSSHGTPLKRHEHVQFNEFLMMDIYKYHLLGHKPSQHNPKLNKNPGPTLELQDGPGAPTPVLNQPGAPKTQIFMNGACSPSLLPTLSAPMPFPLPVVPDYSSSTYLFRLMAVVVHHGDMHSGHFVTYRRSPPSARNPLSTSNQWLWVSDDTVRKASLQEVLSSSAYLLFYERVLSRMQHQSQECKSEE
Method: Dilution plates were prepared at 21 times the final concentration (2100 μM for a final concentration of 100 μM) in 50% DMSO in a 96-well polypropylene V-bottom plate (Greiner #651201). A typical 8-point dilution series would be 100, 30, 10, 3, 1, 0.3, 0.1, 0.03 μM final. Reactions were performed in duplicate in black 384 well plates (small volume, Greiner 784076) in a final reaction volume of 21 μl. Either […] of 50% DMSO or diluted compound was added to the plate. USP30 (Boston Biochem #E582) was diluted in reaction buffer (40 mM Tris, pH 7.5, 0.005% Tween 20, 0.5 mg/ml BSA, 5 mM beta-mercaptoethanol) to achieve a final assay concentration of 4 nM, and 10 μl of diluted USP30 was added to the compound. Enzyme and compound were incubated for 30 min at room temp. Reactions were initiated by the addition of 50 nM of TAMRA labelled peptide linked to ubiquitin via an iso-peptide bond as fluorescence polarisation substrate. Reactions were read immediately after addition of substrate and following a 2-hour incubation at room temperature. Readings were performed on a Pherastar Plus (BMG Labtech). λ Excitation 540 nm; λ Emission 590 nm.

Cathepsins B, K, L, S, V = experiment: Cathepsin IC50, range over B, K, L, S, V; type: biochemical; details: for Selectivity preference for USP30 v cathepsins: range over cathepsins B, K, L, S; for IC50: range over the five cathepsins
Cathepsin K = biological target: T2, Cathepsin K (Homo sapiens, UniProt P43235); experiment: Cathepsin IC50, cathepsin K; type: biochemical
T2 sequence (P43235 115-329): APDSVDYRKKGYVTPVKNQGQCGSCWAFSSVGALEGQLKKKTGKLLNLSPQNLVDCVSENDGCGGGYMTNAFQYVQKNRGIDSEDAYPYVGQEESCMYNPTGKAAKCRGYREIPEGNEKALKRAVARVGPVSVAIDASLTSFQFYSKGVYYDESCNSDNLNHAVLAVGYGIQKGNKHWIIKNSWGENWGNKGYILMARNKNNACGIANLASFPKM

Cathepsin S = Cathepsin S (Homo sapiens, UniProt P25774); experiment: Cathepsin IC50, cathepsin S; type: biochemical
Cathepsin S, sequence (P25774 115-331, species assumed): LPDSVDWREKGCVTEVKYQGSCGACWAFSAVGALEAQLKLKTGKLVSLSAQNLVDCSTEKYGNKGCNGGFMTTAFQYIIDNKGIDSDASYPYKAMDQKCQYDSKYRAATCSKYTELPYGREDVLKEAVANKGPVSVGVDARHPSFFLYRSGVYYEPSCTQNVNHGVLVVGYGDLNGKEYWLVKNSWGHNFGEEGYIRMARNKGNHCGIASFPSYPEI

Cathepsin V, sequence (O60911 114-334, species assumed): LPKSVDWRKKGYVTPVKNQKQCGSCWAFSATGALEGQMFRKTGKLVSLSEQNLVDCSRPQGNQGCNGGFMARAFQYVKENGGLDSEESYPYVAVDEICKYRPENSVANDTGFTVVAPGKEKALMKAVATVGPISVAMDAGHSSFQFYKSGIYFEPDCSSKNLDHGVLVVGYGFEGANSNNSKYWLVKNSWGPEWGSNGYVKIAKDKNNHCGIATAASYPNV

Row | fold more potent against USP30 than Reference Example B (USP30; biochemical assay, v Reference Example B) | fold more potent against USP30 than Reference Example C (USP30; biochemical assay, v Reference Example C) | fold more potent against USP30 than Reference Example D (USP30; biochemical assay, v Reference Example D) | SMILES | IC50 (Cathepsin V) | Cell Tox EC50/USP30 IC50 [1] | EC50 [1] | IC50 (Cathepsin B) | DUB selectivity preference for USP30 v 9 DUBs [2] | IC50 [2] | IC50 (USP30) | fold more potent against USP30 than Reference Example A (USP30; biochemical assay) | fold more potent against USP30 than Reference Example E (USP30; biochemical assay) | fold more potent against USP30 than Reference Example F (USP30; biochemical assay) | fold more potent against USP30 than Reference Example G (USP30; biochemical assay) | Selectivity preference for USP30 v cathepsins (Cathepsins B, K, L, S, V) | IC50 (Cathepsins B, K, L, S, V) | IC50 (Cathepsin K) | IC50 (Cathepsin S)
1 | 3.4 fold | 2 fold | 3.2 fold | N#Cc1cccc(-c2nnc(C(=O)N[C@@H]3C[C@@H](CF)N(C#N)C3)o2)c1 [Example 3, N-((3R,5S)-1-Cyano-5-(fluoromethyl)pyrrolidin-3-yl)-5-(3-cyanophenyl)-1,3,4-oxadiazole-2-carboxamide] | 42.9 µM | >2300 | > 30 µM | 29.4 µM | 338-23000 | ≥ 4.4 µM | 0.013 µM | 5.4 fold | 24 fold | 54 fold | 338 fold | 760-19700 | 9.9 to 256 µM | 18.8 µM | 256 µM
2 |  |  |  | C[C@@H]1C[C@@H](NC(=O)c2nnc(-c3cccc(C#N)c3)o2)CN1C#N [Example 1, N-((3R,5R)-1-Cyano-5-methylpyrrolidin-3-yl)-5-(3-cyanophenyl)-1,3,4-oxadiazole-2-carboxamide] | 176 µM | >1000 | > 30 µM | 154 µM | 200-6900 | 5.8 to 202 µM | 0.029 µM | 2.4 fold | 10.7 fold | 24 fold | 152 fold | 900-10300 | 26.2 to 300 µM | 26.2 µM | > 300 µM
